# Source: paper PMC5218480 (PLoS ONE, 2017)
# Tested on: MV-4-11 cells
# Assay: Gene expression microarray analysis (Affymetrix PrimeView) and GSEA
# Type: cell-based, human
# Parameters: RFU PODN (11730768_x_at) / Fold change /veh PODN (11730768_x_at) / RFU LINC00158 (11744669_a_at) / Fold change /veh LINC00158 (11744669_a_at) / RFU DUSP10 (11751237_a_at) / Fold change /veh DUSP10 (11751237_a_at) / RFU ID3 (11757404_x_at) / Fold change /veh ID3 (11757404_x_at) / RFU PLEKHG5 (11737974_s_at) / Fold change /veh PLEKHG5 (11737974_s_at) / RFU LRRC4B (11730491_at) / Fold change /veh LRRC4B (11730491_at) / RFU GIMAP4 (11747438_a_at) / Fold change /veh GIMAP4 (11747438_a_at) / RFU KRT8 (11758183_x_at) / Fold change /veh KRT8 (11758183_x_at) / RFU CNN1 (11734310_a_at) / Fold change /veh CNN1 (11734310_a_at) / RFU VPS37D (11726825_at) / Fold change /veh VPS37D (11726825_at) / RFU C10orf10 (11716522_x_at) / Fold change /veh C10orf10 (11716522_x_at) / RFU KIR2DL2 /// KIR2DL4 /// KIR2DL5A /// KIR2DL5B /// KIR2DS1 /// KIR2DS2 /// KIR2DS3 /// KIR2DS4 /// KIR3DL3 /// KIR3DL3 /// KIR3DS1 (11738374_at) / Fold change /veh KIR2DL2 /// KIR2DL4 /// KIR2DL5A /// KIR2DL5B /// KIR2DS1 /// KIR2DS2 /// KIR2DS3 /// KIR2DS4 /// KIR3DL3 /// KIR3DL3 /// KIR3DS1 (11738374_at) / RFU C1QL1 (11718748_at) / Fold change /veh C1QL1 (11718748_at) / RFU TMPRSS4 (11747572_a_at) / Fold change /veh TMPRSS4 (11747572_a_at) / RFU HAMP (11756126_x_at) / Fold change /veh HAMP (11756126_x_at) / RFU RNFT2 (11725882_a_at) / Fold change /veh RNFT2 (11725882_a_at) / RFU NR4A2 (11747474_a_at) / Fold change /veh NR4A2 (11747474_a_at) / RFU ABCC12 (11746883_a_at) / Fold change /veh ABCC12 (11746883_a_at) / RFU TMEM136 (11760407_x_at) / Fold change /veh TMEM136 (11760407_x_at) / RFU CLDN22 /// WWC2 (11732394_at) / Fold change /veh CLDN22 /// WWC2 (11732394_at) / RFU HLA-DPB1 (11760878_x_at) / Fold change /veh HLA-DPB1 (11760878_x_at) / RFU SPINT1 (11716480_a_at) / Fold change /veh SPINT1 (11716480_a_at) / RFU GAP43 (11754022_s_at) / Fold change /veh GAP43 (11754022_s_at) / RFU A4GNT (11735810_at) / Fold change /veh A4GNT (11735810_at) / RFU PRB3 (11715151_x_at) / Fold change /veh PRB3 (11715151_x_at) / RFU TUBB4B (11761932_at) / Fold change /veh TUBB4B (11761932_at) / RFU CAPN14 (11732068_a_at) / Fold change /veh CAPN14 (11732068_a_at) / RFU TMCC2 (11721928_a_at) / Fold change /veh TMCC2 (11721928_a_at) / RFU IRGQ (11745062_a_at) / Fold change /veh IRGQ (11745062_a_at) / RFU FAM174B (11720279_a_at) / Fold change /veh FAM174B (11720279_a_at) / RFU TMPRSS4 (11748680_a_at) / Fold change /veh TMPRSS4 (11748680_a_at) / RFU FAM212B (11763350_a_at) / Fold change /veh FAM212B (11763350_a_at) / RFU PLEKHG5 (11743358_a_at) / Fold change /veh PLEKHG5 (11743358_a_at) / RFU ZSCAN30 (11745921_a_at) / Fold change /veh ZSCAN30 (11745921_a_at) / RFU CMKLR1 (11741424_a_at) / Fold change /veh CMKLR1 (11741424_a_at) / RFU LOC101060620 /// MAPK8IP1 (11723275_at) / Fold change /veh LOC101060620 /// MAPK8IP1 (11723275_at) / RFU SPTSSB (11747773_x_at) / Fold change /veh SPTSSB (11747773_x_at) / RFU PRSS12 (11739890_at) / Fold change /veh PRSS12 (11739890_at) / RFU BIN1 (11741810_x_at) / Fold change /veh BIN1 (11741810_x_at) / RFU WNT11 (11732464_a_at) / Fold change /veh WNT11 (11732464_a_at) / RFU C10orf10 (11716521_a_at) / Fold change /veh C10orf10 (11716521_a_at) / RFU C5orf56 (11738089_at) / Fold change /veh C5orf56 (11738089_at) / RFU CYB561 (11721691_x_at) / Fold change /veh CYB561 (11721691_x_at) / RFU ANKRD19P (11752326_a_at) / Fold change /veh ANKRD19P (11752326_a_at) / RFU OR2T12 /// OR2T33 /// OR2T8 (11738714_s_at) / Fold change /veh OR2T12 /// OR2T33 /// OR2T8 (11738714_s_at) / RFU VCAN (11748164_a_at) / Fold change /veh VCAN (11748164_a_at) / RFU JSRP1 (11732532_at) / Fold change /veh JSRP1 (11732532_at) / RFU KRTAP10-11 (11738290_x_at) / Fold change /veh KRTAP10-11 (11738290_x_at) / RFU MYO3A (11730013_a_at) / Fold change /veh MYO3A (11730013_a_at) / RFU EBF3 (11725865_a_at) / Fold change /veh EBF3 (11725865_a_at) / RFU CAMK2N1 (11719241_x_at) / Fold change /veh CAMK2N1 (11719241_x_at) / RFU C5orf56 (11738088_a_at) / Fold change /veh C5orf56 (11738088_a_at) / RFU OLFML3 (11715873_a_at) / Fold change /veh OLFML3 (11715873_a_at) / RFU LOC100653217 /// NTM (11731650_a_at) / Fold change /veh LOC100653217 /// NTM (11731650_a_at) / RFU MAPK11 (11762145_a_at) / Fold change /veh MAPK11 (11762145_a_at) / RFU FIZ1 (11724087_x_at) / Fold change /veh FIZ1 (11724087_x_at) / RFU OASL (11726364_x_at) / Fold change /veh OASL (11726364_x_at) / RFU SOX15 (11748057_x_at) / Fold change /veh SOX15 (11748057_x_at) / RFU CD79A (11719716_a_at) / Fold change /veh CD79A (11719716_a_at) / RFU HIST1H1D (11736915_at) / Fold change /veh HIST1H1D (11736915_at) / RFU CASKIN2 (11723855_a_at) / Fold change /veh CASKIN2 (11723855_a_at) / RFU LOC730098 (11760151_x_at) / Fold change /veh LOC730098 (11760151_x_at) / RFU OR4N2 (11742367_at) / Fold change /veh OR4N2 (11742367_at) / RFU PRRT2 (11749266_a_at) / Fold change /veh PRRT2 (11749266_a_at) / RFU SNX32 (11753110_a_at) / Fold change /veh SNX32 (11753110_a_at) / RFU CDHR5 (11726645_a_at) / Fold change /veh CDHR5 (11726645_a_at) / RFU RCAN1 (11760418_a_at) / Fold change /veh RCAN1 (11760418_a_at) / RFU FAM167A (11723789_a_at) / Fold change /veh FAM167A (11723789_a_at) / RFU FAM26E (11764081_at) / Fold change /veh FAM26E (11764081_at) / RFU ISYNA1 (11749810_s_at) / Fold change /veh ISYNA1 (11749810_s_at) / RFU ACY1 (11761880_at) / Fold change /veh ACY1 (11761880_at) / RFU 11764098_at / Fold change /veh 11764098_at / RFU SAMD14 (11745864_x_at) / Fold change /veh SAMD14 (11745864_x_at) / RFU NPB (11741838_a_at) / Fold change /veh NPB (11741838_a_at) / RFU TMPRSS6 (11731388_a_at) / Fold change /veh TMPRSS6 (11731388_a_at) / RFU KRTAP10-2 (11738614_at) / Fold change /veh KRTAP10-2 (11738614_at) / RFU ARHGAP8 /// PRR5-ARHGAP8 (11727945_x_at) / Fold change /veh ARHGAP8 /// PRR5-ARHGAP8 (11727945_x_at) / RFU KRTAP5-7 /// NADSYN1 (11734609_at) / Fold change /veh KRTAP5-7 /// NADSYN1 (11734609_at) / RFU RASL12 (11751679_a_at) / Fold change /veh RASL12 (11751679_a_at) / RFU CDKN2B (11736163_a_at) / Fold change /veh CDKN2B (11736163_a_at) / RFU PRF1 (11729649_at) / Fold change /veh PRF1 (11729649_at) / RFU, ZNF638 /// ZNF638-IT1 / Fold change vs veh, ZNF638 /// ZNF638-IT1 / RFU, PANK3 / Fold change vs veh, PANK3 / RFU, SH3YL1 / Fold change vs veh, SH3YL1 / RFU, ZEB2 / Fold change vs veh, ZEB2 / RFU, NRIP1 / Fold change vs veh, NRIP1 / RFU, PTTG1IP / Fold change vs veh, PTTG1IP / RFU, CAPN2 / Fold change vs veh, CAPN2 / RFU, MED14 / Fold change vs veh, MED14 / RFU, SNORA58 / Fold change vs veh, SNORA58 / RFU, C1orf63 / Fold change vs veh, C1orf63 / RFU, LRRFIP1 / Fold change vs veh, LRRFIP1 / RFU, NDUFAF7 / Fold change vs veh, NDUFAF7 / RFU, SLC12A2 / Fold change vs veh, SLC12A2 / RFU, IBTK / Fold change vs veh, IBTK / RFU, ESF1 / Fold change vs veh, ESF1 / Fold change vs veh, TMEM50B / RFU, TAOK1 / Fold change vs veh, TAOK1 / RFU, ACBD3 / Fold change vs veh, ACBD3 / RFU, TMA16 / Fold change vs veh, TMA16 / RFU, RWDD3 / Fold change vs veh, RWDD3 / RFU, BCAT1 / Fold change vs veh, BCAT1 / RFU, EDEM3 / Fold change vs veh, EDEM3 / RFU, TMEM33 / Fold change vs veh, TMEM33 / RFU, WDR75 / Fold change vs veh, WDR75 / RFU, AHCTF1 / Fold change vs veh, AHCTF1 / RFU, TFRC / Fold change vs veh, TFRC / RFU, ZDHHC17 / Fold change vs veh, ZDHHC17 / RFU, NOM1 / Fold change vs veh, NOM1 / RFU, ARL8B / Fold change vs veh, ARL8B / RFU, ZBTB11 / Fold change vs veh, ZBTB11 / RFU, TAMM41 / Fold change vs veh, TAMM41 / RFU, KIAA1704 /// LOC100996395 / Fold change vs veh, KIAA1704 /// LOC100996395 / RFU, ING1 / Fold change vs veh, ING1 / RFU, TRMT61B / Fold change vs veh, TRMT61B / RFU, FUBP3 / Fold change vs veh, FUBP3 / RFU, TP53 / Fold change vs veh, TP53 / RFU, TNKS2 / Fold change vs veh, TNKS2 / RFU, ZFP14 / Fold change vs veh, ZFP14 / RFU, ACTR2 / Fold change vs veh, ACTR2 / RFU, PPP3R1 / Fold change vs veh, PPP3R1 / RFU, PIK3R1 / Fold change vs veh, PIK3R1 / RFU, HNRNPA1 / Fold change vs veh, HNRNPA1 / RFU, RNF170 / Fold change vs veh, RNF170 / RFU, ZNF28 / Fold change vs veh, ZNF28 / RFU, RNGTT / Fold change vs veh, RNGTT / RFU, OGT / Fold change vs veh, OGT / RFU, BRD1 / Fold change vs veh, BRD1 / RFU, MARS / Fold change vs veh, MARS / RFU, ZNF655 / Fold change vs veh, ZNF655 / RFU, FAHD1 / Fold change vs veh, FAHD1 / RFU, BDP1 / Fold change vs veh, BDP1 / RFU, LRRCC1 / Fold change vs veh, LRRCC1 / RFU, ARID1A / Fold change vs veh, ARID1A / RFU, ZNF146 / Fold change vs veh, ZNF146 / RFU, ZNF330 / Fold change vs veh, ZNF330 / RFU, GPN3 / Fold change vs veh, GPN3 / RFU, C9orf123 / Fold change vs veh, C9orf123 / RFU, N4BP2L2 / Fold change vs veh, N4BP2L2 / RFU, ARFIP1 / Fold change vs veh, ARFIP1 / RFU, FAM179B / Fold change vs veh, FAM179B / RFU, BCL10 / Fold change vs veh, BCL10 / RFU, UHRF1BP1L / Fold change vs veh, UHRF1BP1L / RFU, BET1 / Fold change vs veh, BET1 / RFU, CNOT2 / Fold change vs veh, CNOT2 / RFU, ZNF268 / Fold change vs veh, ZNF268 / Fold change vs veh, ZNF507 / RFU, DGCR2 / Fold change vs veh, DGCR2 / RFU, WDSUB1 / Fold change vs veh, WDSUB1 / Fold change vs veh, HSP90B1 /// MIR3652 / RFU, ADSS / Fold change vs veh, ADSS / RFU, GK / Fold change vs veh, GK / RFU, ZNF148 / Fold change vs veh, ZNF148 / RFU, TAF9 / Fold change vs veh, TAF9 / RFU, SLC1A5 / Fold change vs veh, SLC1A5 / RFU, SLMO2 / Fold change vs veh, SLMO2 / RFU, ABCC4 / Fold change vs veh, ABCC4 / RFU, LOC101060439 /// RAP1B / Fold change vs veh, LOC101060439 /// RAP1B / RFU, RFX7 / Fold change vs veh, RFX7 / RFU, GTPBP10 / Fold change vs veh, GTPBP10 / RFU, CNEP1R1 / Fold change vs veh, CNEP1R1 / RFU, BIVM-ERCC5 /// ERCC5 / Fold change vs veh, BIVM-ERCC5 /// ERCC5 / RFU, ILF3 / Fold change vs veh, ILF3 / RFU 11762660_at / Fold change /veh 11762660_at / RFU VCAN (11757783_s_at) / Fold change /veh VCAN (11757783_s_at) / RFU DDX43 (11728927_at) / Fold change /veh DDX43 (11728927_at) / RFU KRT8 (11758188_x_at) / Fold change /veh KRT8 (11758188_x_at) / RFU NKD1 (11759106_at) / Fold change /veh NKD1 (11759106_at) / RFU SRD5A1 (11742802_a_at) / Fold change /veh SRD5A1 (11742802_a_at) / RFU TPSAB1 /// TPSB2 (11721975_s_at) / Fold change /veh TPSAB1 /// TPSB2 (11721975_s_at) / RFU GSTM3 (11746129_a_at) / Fold change /veh GSTM3 (11746129_a_at) / RFU IL23R (11737362_x_at) / Fold change /veh IL23R (11737362_x_at) / RFU TMEM51 (11727254_a_at) / Fold change /veh TMEM51 (11727254_a_at) / RFU PIWIL2 (11732686_x_at) / Fold change /veh PIWIL2 (11732686_x_at) / RFU ORM1 (11744905_x_at) / Fold change /veh ORM1 (11744905_x_at) / RFU CCDC152 (11743942_at) / Fold change /veh CCDC152 (11743942_at) / RFU ECM1 (11717891_a_at) / Fold change /veh ECM1 (11717891_a_at) / RFU IL23R (11748794_a_at) / Fold change /veh IL23R (11748794_a_at) / RFU TNFAIP8L3 (11732012_x_at) / Fold change /veh TNFAIP8L3 (11732012_x_at) / RFU MBOAT4 (11741988_at) / Fold change /veh MBOAT4 (11741988_at) / RFU 11764193_at / Fold change /veh 11764193_at / RFU TMEM53 (11763286_at) / Fold change /veh TMEM53 (11763286_at) / RFU MAGEB2 (11727129_at) / Fold change /veh MAGEB2 (11727129_at) / RFU TMEM200A (11744735_a_at) / Fold change /veh TMEM200A (11744735_a_at) / RFU CCDC152 (11751479_a_at) / Fold change /veh CCDC152 (11751479_a_at) / RFU FAM211A (11726209_a_at) / Fold change /veh FAM211A (11726209_a_at) / RFU RGS16 (11746705_a_at) / Fold change /veh RGS16 (11746705_a_at) / RFU VCAN (11755009_s_at) / Fold change /veh VCAN (11755009_s_at) / RFU RHOB (11743442_s_at) / Fold change /veh RHOB (11743442_s_at) / RFU RGS16 (11720943_a_at) / Fold change /veh RGS16 (11720943_a_at) / RFU RGS16 (11720944_at) / Fold change /veh RGS16 (11720944_at) / RFU, VPS4B / Fold change vs veh, VPS4B / RFU, CREB1 / Fold change vs veh, CREB1 / RFU, DNAJC13 / Fold change vs veh, DNAJC13 / RFU, GNAQ / Fold change vs veh, GNAQ / RFU, CDK5R1 / Fold change vs veh, CDK5R1 / RFU, ZRANB3 / Fold change vs veh, ZRANB3 / RFU, CUL4A / Fold change vs veh, CUL4A / RFU, CCNY / Fold change vs veh, CCNY / RFU, UFL1 / Fold change vs veh, UFL1 / RFU, COG3 / Fold change vs veh, COG3 / RFU, DIAPH2 / Fold change vs veh, DIAPH2 / RFU, SKA2 / Fold change vs veh, SKA2 / RFU, AFF3 / Fold change vs veh, AFF3 / RFU, LMF1 / Fold change vs veh, LMF1 / RFU, IPO11 / Fold change vs veh, IPO11 / RFU, DFFB / Fold change vs veh, DFFB / RFU, FOXP1 / Fold change vs veh, FOXP1 / RFU, CARD8 / Fold change vs veh, CARD8 / RFU, STRN3 / Fold change vs veh, STRN3 / RFU, ADK / Fold change vs veh, ADK / RFU, RASSF2 / Fold change vs veh, RASSF2 / RFU, WIPF1 / Fold change vs veh, WIPF1 / RFU, LARP1B / Fold change vs veh, LARP1B / RFU, RASA1 / Fold change vs veh, RASA1 / RFU, RB1 / Fold change vs veh, RB1 / RFU, PPFIA1 / Fold change vs veh, PPFIA1 / RFU, MAT2A / Fold change vs veh, MAT2A / RFU, CCT5 / Fold change vs veh, CCT5 / RFU, WDR92 / Fold change vs veh, WDR92 / RFU, CUX1 / Fold change vs veh, CUX1 / RFU, TTC7A / Fold change vs veh, TTC7A / RFU, TMEM135 / Fold change vs veh, TMEM135 / RFU, DEPTOR / Fold change vs veh, DEPTOR / RFU, CPM / Fold change vs veh, CPM / RFU, DNAJB6 / Fold change vs veh, DNAJB6 / RFU, CACNA2D3 / Fold change vs veh, CACNA2D3 / RFU, DTX4 / Fold change vs veh, DTX4 / RFU, TFCP2 / Fold change vs veh, TFCP2 / RFU, GMCL1 /// GMCL1P1 / Fold change vs veh, GMCL1 /// GMCL1P1 / RFU, AEBP2 / Fold change vs veh, AEBP2 / RFU, SNHG1 /// SNORD22 /// SNORD25 /// SNORD26 /// SNORD27 /// SNORD28 /// SNORD29 /// SNORD31 / Fold change vs veh, SNHG1 /// SNORD22 /// SNORD25 /// SNORD26 /// SNORD27 /// SNORD28 /// SNORD29 /// SNORD31 / Fold change (Aza/veh), C12orf56 (ProbeSet 11735607_a_at) / Fold change (ACY-1035/veh), C12orf56 (ProbeSet 11735607_a_at) / Fold change (Aza/veh), FGFR1OP (ProbeSet 11751329_s_at) / Fold change (ACY-1035/veh), FGFR1OP (ProbeSet 11751329_s_at) / Fold change (Aza/veh), VPS36 (ProbeSet 11739960_a_at) / Fold change (ACY-1035/veh), VPS36 (ProbeSet 11739960_a_at) / RFU SYPL1 (11715823_x_at) / Fold change /veh SYPL1 (11715823_x_at) / RFU IGFBP7 (11715501_s_at) / Fold change /veh IGFBP7 (11715501_s_at) / RFU REEP3 (11722064_at) / Fold change /veh REEP3 (11722064_at) / RFU IGLL1 (11728026_x_at) / Fold change /veh IGLL1 (11728026_x_at): dose or concentration left out as unconfirmed
# Conditions: ProbeSet 11732277_a_at; LIST D
smiles,measurement,value
Nc1ccc(-c2cccs2)cc1NC(=O)c1ccc2c(c1)cc(C1CC1)n2CCN1CCOCC1 [ACY-1035],"RFU, FOXP1",575.26 RFU
